From PubChem BioAssay (NCI)
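Compound exposure: 48 hours, 5 concentrations, 96-well plates. GI50: concentration for 50% inhibition of growth. Definition used: TGI = concentration required for complete inhibition of growth.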

Assays:
Assay in all cases: NCI tumour cell line growth inhibition, 48 h
[1] = system: EKVX NSCLC
[2] = system: HCT-15 colon
[3] = system: HOP-62 NSCLC
[4] = system: MALME-3M melanoma
[5] = system: NCI-H522 lung
[6] = system: OVCAR-5 ovarian
[7] = system: OVCAR-8 ovarian
[8] = system: SK-MEL-2 melanoma
[9] = system: UO-31 renal
[10] = system: CAKI-1 renal

| SMILES | TGI [1] | TGI [2] | TGI [3] | TGI [4] | TGI [5] | TGI [6] | TGI [7] | TGI [8] | TGI [9] | GI50 [10] | TGI [10] | GI50 [1] | GI50 [2] | GI50 [4] | GI50 [5] | GI50 [6] | GI50 [8] | GI50 [9] | GI50 [3] | GI50 [7] |
| --- | --- | --- | --- | --- | --- | --- | --- | --- | --- | --- | --- | --- | --- | --- | --- | --- | --- | --- | --- | --- |
| CCCCCCCCCCCCO[P+](=O)OCCCCCCCCCCCC | > 100 µM | > 100 µM | > 100 µM | > 100 µM | > 100 µM | > 100 µM | > 100 µM | > 100 µM | > 100 µM | – | – | – | – | – | – | – | – | – | – | – |
| NC(=O)Oc1ccccc1 | – | > 100 µM | – | – | > 100 µM | – | > 100 µM | – | > 100 µM | – | – | – | – | – | – | – | – | – | – | – |
| C=C(C)[C@@H]1CC[C@]2(C(=O)NC(C)=O)CC[C@]3(C)[C@H](CC[C@@H]4[C@@]5(C)CCCNC(C)(C)[C@@H]5CC[C@]43C)[C@@H]12 | 3.23 µM | 2.97 µM | – | 2.65 µM | 3.56 µM | 2.88 µM | – | 3.73 µM | 2.69 µM | 1.64 µM | 3.1 µM | 1.6 µM | 1.52 µM | 1.34 µM | 1.66 µM | 1.53 µM | 1.92 µM | 1.4 µM | – | – |
| CCOC(=O)Cn1c(=O)c(C)cn(COCCO)c1=O | > 100 µM | – | > 100 µM | > 100 µM | > 100 µM | > 100 µM | > 100 µM | > 100 µM | > 100 µM | – | > 100 µM | – | – | – | – | – | – | – | – | – |
| O=C(CCC1CCCCN1)Nc1ccc2c(c1)C(=O)c1ccc(NC(=O)CCN3CCCCC3)cc1C2=O (stereo not drawn) | – | – | 27.9 µM | 2.81 µM | – | 11.2 µM | 9.73 µM | – | 2.68 µM | – | 5.61 µM | – | – | – | – | – | – | – | – | – |
| CCN(CC)CCO[Si](OCCN(CC)CC)(OCCN(CC)CC)OCCN(CC)CC | > 100 µM | > 100 µM | – | > 100 µM | – | > 100 µM | > 100 µM | > 100 µM | > 100 µM | – | > 100 µM | – | – | – | – | – | – | – | – | – |
| CN/N=C(\C(=O)Nc1ccc(C)c(C)c1)C(C(=O)OC)c1nc2ccc([N+](=O)[O-])cc2[nH]c1=O (stereo not drawn) | > 100 µM | > 100 µM | > 100 µM | – | 70.9 µM | > 100 µM | > 100 µM | > 100 µM | > 100 µM | – | > 100 µM | – | – | – | – | – | – | – | – | – |
| COC(=O)C1c2cc3c(c(O)c2C(O)CC1(C)O)C(=O)c1c(O)cc2c(c1C3=O)OC1OC2(C)C(O)C(N(C)C)C1O (stereo not drawn) | – | – | > 100 µM | – | – | – | > 100 µM | > 100 µM | – | – | 14.2 µM | – | – | – | – | – | – | – | – | – |
| COc1ccc(-c2n/c(=C\c3c(O)[nH]c4ccccc34)cc3c2=Nc2ccccc2-3)cc1 | 52 µM | 4.13 µM | 3.23 µM | – | 2.3 µM | 20.4 µM | 3.11 µM | 2.35 µM | 24.2 µM | 14.5 µM | 36.7 µM | 3.44 µM | 1.64 µM | – | 1.06 µM | 5.63 µM | 0.795 µM | 0.693 µM | 1.63 µM | 1.42 µM |
